These results are taken from patent publication US20250195445A1, “LONG-LASTING ANTIMICROBIAL COMPOSITIONS CONTAINING CATIONIC ACTIVE AGENTS AND ANIONIC EXCIPIENTS AND USES” (priority 2022, published 2025).

Each structure is given as a SMILES string.

The data set is described as follows: isothermal nanotitration calorimetry, interaction with beta-cyclodextrin. It counts as physicochemical. The settings on record: for strength of interaction with beta-cyclodextrin: adimensional values. From the text:
In adimensional values: 1000×10^6 and 737×10^6, respectively (Table 6). [table]

Regarding `N=C(NCCCCCCNC(=N)NC(=N)Nc1ccc(Cl)cc1)NC(=N)Nc1ccc(Cl)cc1` [chlorhexidine digluconate, 1,1′-hexamethylene bis(5-(p-chlorophenyl)biguanide)], the “strength of interaction with beta-cyclodextrin” value is 1000×10^6. Also, the “interaction with beta-cyclodextrin relative to interaction of sodium lauryl sulfate with beta-cyclodextrin” value (calorimetric analyses) was “about 1000 times”.
Turning to `CCCCCCCCCCCCOS(=O)(=O)[O-].[Na+]` [sodium lauryl sulfate], the “strength of interaction with beta-cyclodextrin” value is reported as 737×10^6.
